Literature values in US20070098676A1, “FUNCTIONALLY DIVERSE MACROMOLECULES AND THEIR SYNTHESIS” (priority 2005, published 2007).

Test system: RSV
Conditions: study conducted in 2001 (Huntley et al., 2002)

## NC(=O)CN(CC(N)=O)S(=O)(=O)c1cccc(Nc2nc(Nc3cccc(S(=O)(=O)N(CC(N)=O)CC(N)=O)c3)nc(Nc3ccc(-c4ccc(Nc5nc(Nc6cccc(S(=O)(=O)N(CC(N)=O)CC(N)=O)c6)nc(Nc6cccc(S(=O)(=O)N(CC(N)=O)CC(N)=O)c6)n5)cc4S(=O)(=O)O)c(S(=O)(=O)O)c3)n2)c1 [RFI-641]
  inhibition of RSV: potent and selective inhibitor of RSV
